Test results taken from patent US4170645A, “Antibacterial agent BM123γ, salts and alkyl derivatives thereof for the control of shipping fever in cattle” (American Cyanamid Company, priority 1978, dated 1979).

How the values were obtained:
[1] = system: P. hemolytica; experiment: In vitro minimal inhibitory concentration against P. hemolytica isolates (Example 1); format: cell-based
Protocol: (§1) Minimal inhibitory concentrations (MIC) of eight Pasteurella isolates are also determined.

[2] = system: P. multocida; experiment: In vitro minimal inhibitory concentration against P. multocida isolates (Example 1); format: cell-based
Protocol: as §1

[3] = system: P. multocida; experiment: MIC by tube dilution method against P. multocida (Example 3); format: cell-based; settings: 24 hours, 37° C.
Protocol: (§2) In vitro determination of the potency of Isopropyl BM123γ compared with oxytetracycline and gentamicin in selected bacterial isolates by a tube dilution method.
(§3) Serial two-fold dilutions of antibacterial agent are prepared in trypticase soy broth. To each tube containing 5 ml of broth, is added 0.1 ml of 10^-3 dilution of bacterial inoculum, adjusted prior to dilution of 44 percent transmission at 645 m,u. An inoculated broth, containing no drug is included as growth for each strain tested.

[4] = system: P. hemolytica; experiment: MIC by tube dilution method against P. hemolytica (Example 3); format: cell-based; settings: 24 hours, 37° C.
Protocol: as §2, §3

[5] = system: shipping fever; experiment: Efficacy in depressing the body temperature of calves having shipping fever (Example 1); format: in vivo; settings: 13 mg/kg i.m., three or four consecutive days
Source text: In vivo activity of BM123γ-hydrochloride and of isopropyl BM123γ for the control of shipping fever in calves.
Two hundred sick calves, with elevated temperatures and clinical signs of shipping fever are chosen for the experiment. The animals are allotted to four groups of 50 calves each. One group serves as nonmedicated, infected controls receiving placebos, the other groups receive intramuscular injections of the respective drugs for three or four consecutive days at the levels indicated in Table 1. […]

[6] = system: Pasteurella; experiment: Bacterial isolation from tissues of sacrificed treated calves; format: in vivo; settings: Calf No. 4, 4 days administered
Source text: At the end of the experiment, six calves are sacrificed, and animal tissues examined for aerobic and anaerobic bacteria. Pasteurella are isolated and identified from three of the sacrificed calves. No anaerobes are recovered from any tissues.

[7] = system: shipping fever; experiment: Control of shipping fever in young cattle: mortality and days to return to normal temperature (Example 2); format: in vivo, calves; settings: 11.0 mg/kg i.m., 3 daily injections
Source text: In vivo activity of Isopropyl BM123γ for the control of shipping fever in young cattle as compared to oxytetracycline.
Calves weighing 90.6 to 181.2 Kg received at the feedlot are processed as is normally done, except no antibacterial treatment is given. Processing includes vaccination with Infectious Bovine Rhinotracheitis (Bovine virus Diarrhea) Leptospirosis vaccine, administration of a Clostridium novyi, septicum, sordelli, chauvei bacterin, levamisole (1/2 oblet), i.m. administration of 3 ml of a vitamin A, D and E formulation, a pour-on formulation of 0,0-dimethyl-0-(2,4,5-trichlorophenyl) ester of phosphorothioic acid for the control of grubs and lice, and one DES (diethylstilbestrol) implant in an ear. In addition--and at the same time--the calves are branded, ear tagged, dehorned and castrated where applicable.
One to two days after arrival and processing, sick calves are removed from the holding pens and those with temperatures of 40.0° C. or higher and showing symptoms of respiratory disease are selected for the study.
A total of 300 calves are randomly allotted to four groups of 75 calves each. One group serves as infected unmedicated controls receiving a "blank" solution, the others receive intramuscularly between hip and pin bones, for a total of 3 daily injections of:
a. 11 mg/kg body weight of oxytetracycline, the maximum recommended dose;
b. 0.5 mg/kg body weight of Isopropyl BM123γ; or
c. 1.0 mg/kg body weight of Isopropyl BM123γ.
The preparation and composition of injectables for "b" and "c" are described in Example 5 below.
Temperatures are recorded daily until two successive readings of 39.7° C. or lower are recorded, at which time calves are moved from the "sick" pen to the "recovered" pen. Although some of the "recovered" calves continue to show symptoms of disease, the criterion of body temperature is selected since it is completely objective.
One hundred fifty-four calves are treated the first day, fifty the second and 96 the third day. Following treatment, each animal is observed and its temperature recorded for a total of 14 consecutive days. Each animal which dies is necropsied and duplicate samples of lung and mediastinal lymph node are taken for microbiological examination. Necropsy examinations confirm the presence of severe pneumonia in most animals which died.
These calves died early in the study from conditions which the treatments should not have been expected to control.

[8] = system: shipping fever; experiment: Gross necropsy findings of sacrificed treated calves; format: in vivo; settings: Calf No. 4 (d), 4 days administered

Gentamicin was tested, and the MIC ([1]; isolate No. 1) was 4 µg/mL, the MIC ([1]; isolate No. 2) was 8 µg/mL and the MIC ([1]; isolate No. 3) was 2 µg/mL. The MIC ([1]; isolate No. 4) was 4 µg/mL, the MIC ([1]; isolate No. 5) was 4 µg/mL and the MIC ([2]; isolate No. 6) was 2 µg/mL. For the same molecule, the MIC ([2]; isolate No. 7) was 2 µg/mL, the MIC ([2]; isolate No. 8) was 2 µg/mL and the MIC ([3]; isolate No. 1) was 4.0 µg/mL. For the same molecule, the MIC ([3]; isolate No. 2) was 4.0 µg/mL, the MIC ([3]; isolate No. 3) was 8.0 µg/mL and the MIC ([3]; isolate No. 4) was 4.0 µg/mL. The MIC ([3]; isolate No. 5) was 4.0 µg/mL, the MIC ([3]; isolate No. 6) was 4.0 µg/mL and the MIC ([3]; isolate No. 7) was 4.0 µg/mL. It also gave an MIC ([4]; isolate No. 1) of 8.0 µg/mL, an MIC ([4]; isolate No. 2) of 8.0 µg/mL and an MIC ([4]; isolate No. 3) of 4.0 µg/mL. It also gave an MIC ([4]; isolate No. 4) of 8.0 µg/mL and an MIC ([4]; isolate No. 5) of 4.0 µg/mL.
For `CN(C)C1C(=O)C(C(N)=O)=C(O)C2(O)C(=O)C3=C(O)c4c(O)cccc4C(C)(O)C3C(O)C12` (stereo not drawn) [Oxytetracycline], the “Calves below 39.4° C./total, 2 days after last Injection” value [5] was 22/38, the “Percent of calves below 39.4° C., 2 days after last Injection” value [5] was 58% and the “Mean Temperature 2 days after last Injection” value ([5]; mean initial 40.7) was 39.4 °C. For the same molecule, the Bacteria isolated [6] was “P. Hemolytica + P. multocida”, the Total cfu/g ([6]; P. Hemolytica + P. multocida) was 9.1 × 10^6 cfu/g and the “Mortality, Percent” value [7] was 5.6%. The “average number of days to return to normal temperature” value [7] was 5.33 days, the “Mortality, No. of Animals” value ([7]; group of 75) was 4 No. of Animals and the “Days to Normal, No. of Animals” value ([7]; normal = two successive readings of 39.7° C. or lower) was 72 No. of Animals. The “Lung findings at necropsy” value [8] was “The lungs were consolidated and had miliary abscesses in 60% of their volume”.
